Our source for the TGI values is PubChem BioAssay (NCI).

Test systems include CAKI-1 renal; DMS 114 small cell lung; HCC-2998 colon; KM20L2 colon; M19-MEL melanoma; MALME-3M melanoma; OVCAR-3 ovarian; RPMI-8226 leukemia; SK-OV-3 ovarian; XF 498 CNS; PC-3 prostate; BT-549 breast.
Holding throughout (assay): growth of human tumour cells (NCI), 48 h

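Values below derive from 48-hour exposures of cells grown in 96-well plates, with endpoints linearly interpolated between the two concentrations bracketing the appropriate inhibition level. Definition used: TGI = concentration required for complete inhibition of growth.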

Turning to `O=[N+]([O-])c1ccc(Cc2nc3ccccc3s2)cc1`, the TGI with CAKI-1 renal, in the assay with DMS 114 small cell lung, with HCC-2998 colon, in the assay on KM20L2 colon, in the assay with M19-MEL melanoma and with MALME-3M melanoma was more than 100 µM throughout. The TGI in the assay with OVCAR-3 ovarian, with RPMI-8226 leukemia, with SK-OV-3 ovarian and in the assay with XF 498 CNS was more than 100 µM in each case.

Turning to `Cc1ccccc1C(C#N)/C(=N/NC(=O)c1cc2ccccc2cc1O)C(=O)Nc1cccc(Cl)c1` (centres undefined), the TGI is more than 100 µM in the assay with CAKI-1 renal; 51.8 µM with DMS 114 small cell lung; 78.5 µM with HCC-2998 colon; 94.4 µM in the assay on KM20L2 colon; 52.1 µM in the assay on M19-MEL melanoma; more than 100 µM in the assay with MALME-3M melanoma. Moreover, the TGI in the assay with OVCAR-3 ovarian was 92.7 µM; with RPMI-8226 leukemia, more than 100 µM; in the assay on SK-OV-3 ovarian, more than 100 µM; in the assay on XF 498 CNS, 73.3 µM.

As for `COc1ccccc1NC(=O)CC(=O)n1nc(C)c(N=Nc2ccccc2F)c1C`, the TGI with CAKI-1 renal, with DMS 114 small cell lung, in the assay with HCC-2998 colon, in the assay with KM20L2 colon, in the assay with M19-MEL melanoma and with OVCAR-3 ovarian was more than 100 µM each time. In addition, the figures for the TGI in the assay with RPMI-8226 leukemia, in the assay on SK-OV-3 ovarian and in the assay with XF 498 CNS were more than 100 µM, 83.6 µM and more than 83.3 µM, respectively.

As to `CCCCOC(=O)/C(CC(=O)C=C(C)C)=N\NS(=O)(=O)c1ccc(C)cc1`, the TGI with CAKI-1 renal, with DMS 114 small cell lung, in the assay on HCC-2998 colon, with KM20L2 colon, in the assay on M19-MEL melanoma and with MALME-3M melanoma was more than 100 µM each time. In addition, the TGI with OVCAR-3 ovarian, with RPMI-8226 leukemia, in the assay on SK-OV-3 ovarian and in the assay with XF 498 CNS was more than 100 µM in each case.

On to `N#CCCc1nc2ccc(Br)cc2c(=O)n1-c1ccc(O)c([N+](=O)[O-])c1`, for which the TGI in the assay with CAKI-1 renal was 92.6 µM; in the assay on HCC-2998 colon it was 37.4 µM; with KM20L2 colon, more than 100 µM; in the assay on M19-MEL melanoma, 42.3 µM; in the assay with MALME-3M melanoma, 33.3 µM; in the assay on OVCAR-3 ovarian, 41.4 µM. Also, the TGI turned out to be 40 µM with RPMI-8226 leukemia, 85.2 µM in the assay with SK-OV-3 ovarian and 34.9 µM in the assay on XF 498 CNS.

On to `COc1ccc(C2(CN(C)C)COc3cc(OC)c(OC)cc3C2=O)cc1OC` (centres undefined), for which the TGI is more than 100 µM in the assay with CAKI-1 renal; 78.3 µM in the assay with DMS 114 small cell lung; more than 100 µM in the assay with HCC-2998 colon; more than 100 µM with KM20L2 colon; more than 100 µM in the assay with M19-MEL melanoma; more than 100 µM in the assay on MALME-3M melanoma. In addition, the TGI is more than 100 µM in the assay on OVCAR-3 ovarian, 63.4 µM in the assay with RPMI-8226 leukemia, more than 100 µM in the assay with SK-OV-3 ovarian and more than 100 µM in the assay with XF 498 CNS.

As for `CCc1ccccc1NC(=O)CCc1nc(=S)[nH][nH]1`, the TGI in the assay with CAKI-1 renal, in the assay on DMS 114 small cell lung, with HCC-2998 colon, with KM20L2 colon, in the assay with M19-MEL melanoma and with MALME-3M melanoma was more than 100 µM each time. Moreover, the TGI in the assay with OVCAR-3 ovarian, in the assay with RPMI-8226 leukemia, in the assay on SK-OV-3 ovarian and with XF 498 CNS was more than 100 µM each time.

Consider `COc1ncnc2c(NC3OC(CO)C(O)C3O)ncnc12` (centres undefined), for which the TGI with CAKI-1 renal is 6.3 µM; with DMS 114 small cell lung, 1.09 µM; in the assay with HCC-2998 colon it was more than 35 µM; in the assay with KM20L2 colon, more than 100 µM; in the assay with MALME-3M melanoma, more than 100 µM; in the assay with OVCAR-3 ovarian, 11.1 µM. In addition, the TGI is 12.6 µM in the assay with PC-3 prostate, 3.08 µM with RPMI-8226 leukemia, more than 27.1 µM in the assay on SK-OV-3 ovarian and 7.84 µM in the assay on XF 498 CNS.

Regarding `Cc1cc2c(cn1)C(=O)OCC2`, the TGI in the assay on DMS 114 small cell lung, in the assay with HCC-2998 colon, in the assay with KM20L2 colon, in the assay with M19-MEL melanoma, in the assay with MALME-3M melanoma and with OVCAR-3 ovarian was more than 100 µM throughout. In addition, the TGI with RPMI-8226 leukemia, in the assay on SK-OV-3 ovarian and in the assay on XF 498 CNS was more than 100 µM each time.

For `Cc1cc2c(C(C)C)c(O)c(O)c3coc(/c1=c1/c(C)cc4c(C(C)C)c(=O)c(=O)c5coc1c45)c32`, the TGI was found to be 26.9 µM in the assay on CAKI-1 renal; 6.48 µM in the assay on DMS 114 small cell lung; 14.8 µM in the assay on HCC-2998 colon; 18.1 µM in the assay on KM20L2 colon; 19.7 µM in the assay with M19-MEL melanoma; 29.1 µM in the assay with MALME-3M melanoma. Moreover, the TGI came out at 16.6 µM with OVCAR-3 ovarian, 34.5 µM with RPMI-8226 leukemia, 33.7 µM in the assay with SK-OV-3 ovarian and 17.4 µM with XF 498 CNS.

`O=S(=O)(O)C(F)(F)C(F)(F)C(F)(F)C(F)(F)F`: the TGI in the assay with CAKI-1 renal, in the assay with DMS 114 small cell lung, with HCC-2998 colon, in the assay with KM20L2 colon, with M19-MEL melanoma and in the assay with MALME-3M melanoma was more than 100 µM each time. Further, the TGI with OVCAR-3 ovarian, in the assay with RPMI-8226 leukemia, with SK-OV-3 ovarian and in the assay with XF 498 CNS was more than 100 µM throughout.

For the molecule `CCNC(=O)C(O)C1(O)CCC2[C@@H]3CCC4=CC(=O)C=C[C@]4(C)C3[C@@H](O)C[C@@]21C` (some centres undefined), the TGI in the assay with CAKI-1 renal, in the assay on DMS 114 small cell lung, in the assay on HCC-2998 colon, with KM20L2 colon, in the assay on M19-MEL melanoma and with MALME-3M melanoma was more than 100 µM each time. For the same molecule, the TGI with OVCAR-3 ovarian, with RPMI-8226 leukemia, in the assay on SK-OV-3 ovarian and in the assay on XF 498 CNS was more than 100 µM each time.

With `C/C(=N\NC(N)=S)c1ccc2c(c1)OCO2`, the TGI in the assay on CAKI-1 renal, in the assay with DMS 114 small cell lung, in the assay with HCC-2998 colon, in the assay with KM20L2 colon, in the assay on M19-MEL melanoma and with MALME-3M melanoma was more than 100 µM each time. Further, the TGI in the assay with OVCAR-3 ovarian, in the assay with RPMI-8226 leukemia, with SK-OV-3 ovarian and with XF 498 CNS was more than 100 µM throughout.

Regarding `CCCOc1ccc(/C=C/c2cc(OC)c(OC)c(OC)c2)cc1`, the TGI in the assay on CAKI-1 renal was 37.6 µM; in the assay on HCC-2998 colon, more than 100 µM; in the assay on KM20L2 colon it was 0.406 µM; in the assay on M19-MEL melanoma, more than 100 µM; with MALME-3M melanoma, 84.8 µM; in the assay on RPMI-8226 leukemia, 28.4 µM. In addition, the TGI in the assay on XF 498 CNS came out at 84.9 µM.

Regarding `O=C1C(NCCO)=C(N2CC2)C(=O)C(NCCO)=C1N1CC1`, the TGI in the assay on BT-549 breast is more than 100 µM; with CAKI-1 renal, more than 100 µM; in the assay with DMS 114 small cell lung, more than 50.9 µM; in the assay with HCC-2998 colon, more than 100 µM; with KM20L2 colon, more than 100 µM; in the assay on M19-MEL melanoma, more than 59.8 µM. For the same molecule, the TGI with MALME-3M melanoma was more than 100 µM; in the assay on OVCAR-3 ovarian, more than 75.8 µM; with PC-3 prostate it was more than 100 µM; with RPMI-8226 leukemia, more than 84.8 µM; in the assay on SK-OV-3 ovarian, more than 88 µM; in the assay on XF 498 CNS it was more than 100 µM.

Take `O=S(=O)(CC1=NC2C=CC=CC2N=C1)NCc1ccccc1` (centres undefined): the TGI in the assay with CAKI-1 renal, in the assay on HCC-2998 colon, in the assay on KM20L2 colon, in the assay with M19-MEL melanoma, in the assay with MALME-3M melanoma and in the assay on OVCAR-3 ovarian was more than 100 µM each time. Besides, the TGI in the assay on RPMI-8226 leukemia, with SK-OV-3 ovarian and with XF 498 CNS was more than 100 µM in each case.

With `C=CCOc1cc2c(cc1C(C)c1ccc(OC)cc1)OCO2` (centres undefined), the TGI in the assay on CAKI-1 renal is more than 100 µM; in the assay with DMS 114 small cell lung, 0.838 µM; in the assay on HCC-2998 colon, 12.7 µM; in the assay on KM20L2 colon it was 1.21 µM; in the assay on M19-MEL melanoma, more than 100 µM; in the assay with MALME-3M melanoma, more than 100 µM. The figures for the TGI in the assay on PC-3 prostate, with RPMI-8226 leukemia and in the assay on XF 498 CNS were more than 100 µM, more than 74.4 µM and 0.753 µM, respectively.

Turning to `CSC(=S)N(C)c1nc(=[N+](C)C)ss1`, the TGI with CAKI-1 renal, with DMS 114 small cell lung, in the assay on HCC-2998 colon, in the assay on KM20L2 colon, in the assay on M19-MEL melanoma and with MALME-3M melanoma was more than 100 µM throughout. Moreover, the TGI in the assay with RPMI-8226 leukemia, in the assay on SK-OV-3 ovarian and in the assay on XF 498 CNS was more than 100 µM in each case.

Consider `C/C(=N\NC(N)=S)c1ccc(/C(C)=N/NC(N)=S)cc1`, for which the TGI in the assay with DMS 114 small cell lung, in the assay on HCC-2998 colon, in the assay with KM20L2 colon, in the assay on M19-MEL melanoma, with MALME-3M melanoma and with OVCAR-3 ovarian was more than 100 µM each time. The TGI in the assay with RPMI-8226 leukemia, in the assay on SK-OV-3 ovarian and in the assay on XF 498 CNS was more than 100 µM each time.

With `CCCCCCCCCCCCCCCC(=O)NC1CCc2cc(O)c(O)c(O)c2-c2ccc(SC)c(=O)cc21` (centres undefined), the TGI in the assay on CAKI-1 renal turned out to be 27.2 µM; in the assay on DMS 114 small cell lung it was 6.37 µM; with HCC-2998 colon, 20.9 µM; with KM20L2 colon it was 32.7 µM; in the assay with MALME-3M melanoma, 28.5 µM; in the assay on OVCAR-3 ovarian, 16.8 µM. Further, the TGI was more than 100 µM in the assay with RPMI-8226 leukemia, 29.5 µM with SK-OV-3 ovarian and 29.6 µM in the assay with XF 498 CNS.

With `COC(=O)c1c/c(=N\NC(=O)CC(=O)Nc2ccccc2Cl)c2ccccc2o1`, the TGI in the assay on CAKI-1 renal, in the assay on DMS 114 small cell lung, in the assay with HCC-2998 colon, in the assay with KM20L2 colon, in the assay on OVCAR-3 ovarian and in the assay on RPMI-8226 leukemia was more than 100 µM each time. Further, the TGI with SK-OV-3 ovarian and in the assay with XF 498 CNS was more than 100 µM in each case.

In the case of `Cc1cccc(C(C)(C)C)c1NC(=O)CC1C(=O)Nc2ccccc2S1=O` (centres undefined), the TGI in the assay on CAKI-1 renal, with HCC-2998 colon, in the assay with KM20L2 colon, with MALME-3M melanoma, in the assay on OVCAR-3 ovarian and in the assay with RPMI-8226 leukemia was more than 100 µM each time. Besides, the TGI in the assay with XF 498 CNS was more than 100 µM.

Consider `O=C(CC(=O)Nc1ccc(Cl)cc1)NNCC(=O)Nc1nc(-c2ccccc2)cs1`, for which the TGI with DMS 114 small cell lung, in the assay with HCC-2998 colon, with KM20L2 colon, in the assay with M19-MEL melanoma, with OVCAR-3 ovarian and in the assay on RPMI-8226 leukemia was more than 100 µM each time. Moreover, the TGI in the assay on SK-OV-3 ovarian and in the assay on XF 498 CNS was more than 100 µM in each case.
